Data: patent publication US20040204590A1, “Ep4 receptor agonist, compositions and methods thereof” (priority 2001, published 2004)

Assays:
RCT-3 cells [1] = assay: Effect on intracellular cAMP in RCT-3 cells; type: cell-based, rat
Experimental: (§1) RCT-1 and RCT-3 are clonal cell lines immortalized by SV-40 large T antigen from cells released from fetal rat calvair by a cmbination collagenase/hyaluronidase digestion. RCT-1 cells, derived from cells released during the first 10 minutes of digestion (fraction I), are cultured in RPMI 1640 medium (BRL) with 10% fetal bovine serum and 0.4 mg/ml G418 (BRL). These cells differentiate and express osteoblastic features upon retinoic acid treatment. RCT-3 cells, immortalized from osteoblast-enriched fraction […] cells, are cultured in F-12 medium (BRL) with 5% Fetal bovine serum and 0.4 mg/ml G418. TRAB-11 cells are also immortalized by SV40 large T antigen from adult rat tibia and are cultured in RPMI 1640 medium with 10% FBS and 0.4 mg/ml G418. ROS 17/2.8 rat osteosarcoma cells are cultured in F-12 containing 5% FBS. Osteoblast-enriched (fraction III) primary fetal rat calvaria cells are obtained by collagenase/hyaluronidase digestion of calvariae of 19 day-old rat fetuses. See Rodan et al., Growth stimulation of rat calvaria osteoblastic cells by acidic FGF, Endocrinology, 121, 1919-1923 (1987), which is incorporated by reference herein in its entirety. Cells are released during 30-50 minutes digestion (fraction III) and are cultured in F-12 medium containing 5% FBS. […]

EP4 mRNA in bone tissue = assay: EP4 and EP2 mRNA levels in bone tissue of injected rats (Northern blot); type: in vivo, rat; details: injected 3-6 mg/Kg
Experimental: (§2) For mRNA localization experiments, 5-week old Sprague-Dawley rats (Charles River) are euthanized by CO2, their tibiae and calvariae are excised, cleaned of soft tissues and frozen immediately in liquid nitrogen. For EP4 regulation experiments, 6-week old rats are given a single injection of either vehicle (7% ethanol in sterile water) or an anabolic dose of PGE2 (Cayman Chemical, Ann Arbor, Mich.), 3-6 mg/kg in the same vehicle) intraperitoneally. Animals are euthanized at several time points post-injection and their tibiae and calvariae, as well as samples from lung and kidney tissues are frozen in liquid nitrogen.
Total RNA is extracted from the tibial metaphysis or diaphysis and calvaria using a guanidinium isothiocyanate-phenol-chloroform method after pulverizing frozen bone samples by a tissue homogenizer. See P. Chomczynski et al., Single-step method of RNA isolation by acid guanidium thiocyanate-phenol-chloroform extraction., Analyt Biochem, 162, 156-159 (1987), which is incorporated by reference herein in its entirety. RNA samples ([…]) are separated on 0.9% agarose/formaldehyde gels and transferred onto nylon membranes (Boehringer Mannheim, Germany). […]

RCT-3 cells [2] = assay: EP4 mRNA expression in RCT-3 cells (Northern blot); type: cell-based, rat
Experimental: as §1

TRAB-11 cells = assay: Effect on intracellular cAMP in TRAB-11 cells; type: cell-based, rat
Experimental: as §1

[3] = test system: EP4 expression in bone marrow cells; assay: Localization of EP4 mRNA in bone tissue by in situ hybridization; type: in vivo, rat; details: rats, single anabolic dose
Experimental: as §2
Frozen tibiae are sectioned coronally at […] thickness and sections are mounted on charged slides (Probe On Plus, Fisher Scientific, Springfield, N.J.) and are kept at −70° C. until hybridization. cRNA probes are labeled with ^35S-UPgS (ICN, Costa Mesa, Calif.) using a Riboprobe II kit (Promega Madison, Wis.). Hybridization is performed overnight at 50° C. See M. Weinreb et al., Different pattern of alkaline phosphatase, osteopontin and osteocalcin expression in developing rat bone visualized by in-situ hybridization, J. Bone Miner Res., 5, 831-842 (1990) and D. Shinar et al., Expression of alphav and beta3 integrin subunits in rat osteoclasts in situ, J. Bone Miner. Res., 8, 403-414 (1993), which are both incorporated by reference herein in their entirety. […]

[4] = test system: ROS 17/2.8 rat osteosarcoma cells; assay: Effect on intracellular cAMP in ROS 17/2.8 cells; type: cell-based
Experimental: as §1

RP-1 periosteal cells = assay: EP4 and EP2 mRNA expression in RP-1 periosteal cells (Northern blot); type: cell-based, rat; details: RP-1 cells
Experimental: RP-1 periosteal cells are spontaneously immortalized from primary cultures of periosteal cells from tibae of 4-week old Sprague-Dawley rats and are cultured in DMEM (BRL, Gaithersburg, Md.) with 10% fetal bovine serum (JRH Biosciences, Lenexa, Kans.).
Total RNA is extracted from the tibial metaphysis or diaphysis and calvaria using a guanidinium isothiocyanate-phenol-chloroform method after pulverizing frozen bone samples by a tissue homogenizer. See P. Chomczynski et al., Single-step method of RNA isolation by acid guanidium thiocyanate-phenol-chloroform extraction., Analyt Biochem, 162, 156-159 (1987), which is incorporated by reference herein in its entirety. RNA samples ([…]) are separated on 0.9% agarose/formaldehyde gels and transferred onto nylon membranes (Boehringer Mannheim, Germany). Membranes are prehybridized in Hybrisol I (Oncor, Gaithersburg, Md.) and 0.5 mg/ml sonicated salmon sperm DNA (Boehringer) at 42° C. for 3 hours and are hybridized at 420C with rat EP2 and mouse EP4 cDNA probes labeled with [^32P]-dCTP (Amersham, Buckinghamshire, UK) by random priming using the rediprime kit (Amersham). After hybridization, membranes are washed 4 times in 2×SSC+0.1% SDS at room temperature for a total of 1 hour and once with 0.2×SSC+0.1% SDS at 550C for 1 hour and then exposed to Kodak XAR 2 film at −70° C. using intensifying screens. […]

CCCCC[C@H](O)/C=C/[C@H]1[C@H](O)CC(=O)[C@@H]1C/C=C\CCCC(=O)O [PGE2]
effect on intracellular cAMP (RCT-3 cells [1]): markedly induced | EP4 mRNA levels in the tibial diaphysis (EP4 mRNA in bone tissue; five-week-old male rats): rapidly increased | EP2 mRNA in bone tissue (EP4 mRNA in bone tissue; rats): does not induce | EP4 mRNA levels (RCT-3 cells [2]): no effect | effect on intracellular cAMP (TRAB-11 cells): markedly induced | expression of EP4 in bone marrow cells [3]: increased | effect on intracellular cAMP [4]: no effect | EP4 mRNA levels (RP-1 periosteal cells; 10^−6 M): rapidly increases | EP2 mRNA expression (RP-1 periosteal cells; before or after treatment): not expressed
